ChEMBL document CHEMBL1201862, “PubChem BioAssay data set” (2004)
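Method: 48-hour compound exposure of cells in 96-well plates, five concentrations, linear interpolation of endpoints. Abbreviation: GI50, concentration required for 50% inhibition of growth.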 Calls of active or inactive are those of the source. Cut-off read from the data, not from the text of the source: active = GI50 up to about 1.1 µM and inactive = higher.

Legend:
Assay in all cases: NCI-60 cell line screen, 48 h
TK-10 = tested on: TK-10
NCI-H460 = tested on: NCI-H460
MDA-N = tested on: MDA-N
HCT-116 = tested on: HCT-116
MOLT-4 = tested on: MOLT-4
BT-549 = tested on: BT-549
A549 = tested on: A549
SK-OV-3 = tested on: SK-OV-3
HCT-15 = tested on: HCT-15
EKVX = tested on: EKVX
K562 = tested on: K562
ACHN = tested on: ACHN
SNB-75 = tested on: SNB-75
786-0 = tested on: 786-0
KM12 = tested on: KM12
LOX IMVI = tested on: LOX IMVI
HCC 2998 = tested on: HCC 2998
PC-3 = tested on: PC-3
HOP-62 = tested on: HOP-62
A498 = tested on: A498

SMILES	GI50 (TK-10)	GI50 (NCI-H460)	GI50 (MDA-N)	GI50 (HCT-116)	GI50 (MOLT-4)	GI50 (BT-549)	GI50 (A549)	GI50 (SK-OV-3)	GI50 (HCT-15)	GI50 (EKVX)	GI50 (K562)	GI50 (ACHN)	GI50 (SNB-75)	GI50 (786-0)	GI50 (KM12)	GI50 (LOX IMVI)	GI50 (HCC 2998)	GI50 (PC-3)	GI50 (HOP-62)	GI50 (A498)
NC1CC(=O)c2c(Cl)sc(Cl)c21 (stereo not given)	2.43 µM (inactive)	14.5 µM (inactive)	4.56 µM (inactive)	1.43 µM (inactive)	2.18 µM (inactive)	3.76 µM (inactive)	12.7 µM (inactive)	14.4 µM (inactive)	1.63 µM	2 µM (inactive)	2.03 µM (inactive)	2.33 µM (inactive)	14.1 µM (inactive)	1.41 µM (inactive)	3.06 µM (inactive)	1.51 µM (inactive)	10.1 µM (inactive)	6.21 µM (inactive)	10.7 µM (inactive)	15.3 µM (inactive)
N=C(N)NS(=O)(=O)c1ccc(NC(=O)c2ccc3nc4ccccc4c(Nc4ccc(S(N)(=O)=O)cc4)c3c2)cc1	> 100 µM (inactive)	> 100 µM (inactive)	> 100 µM (inactive)	> 100 µM (inactive)	> 100 µM (inactive)	> 100 µM (inactive)	> 100 µM (inactive)	> 100 µM (inactive)	> 100 µM	> 100 µM (inactive)	> 100 µM (inactive)	> 100 µM (inactive)	> 100 µM (inactive)	> 100 µM (inactive)	> 100 µM (inactive)	> 100 µM (inactive)	> 100 µM (inactive)	> 100 µM (inactive)	> 100 µM (inactive)	> 100 µM (inactive)
O=S(=O)(O)c1ccc(/N=N/c2c(O)ccc3ccccc23)cc1	> 100 µM (inactive)	> 100 µM (inactive)	> 100 µM (inactive)	> 100 µM (inactive)	> 100 µM (inactive)	> 100 µM (inactive)	> 100 µM (inactive)	> 100 µM (inactive)	> 100 µM	> 100 µM (inactive)	> 100 µM (inactive)	> 100 µM (inactive)	> 100 µM (inactive)	> 100 µM (inactive)	> 100 µM (inactive)	> 100 µM (inactive)	> 100 µM (inactive)	> 100 µM (inactive)	> 100 µM (inactive)	> 100 µM (inactive)
CCc1nc(N)nc(N)c1-c1ccc(Cl)c(/N=N/N(C)C)c1	> 100 µM (inactive)	6.59 µM (inactive)	36 µM (inactive)	15.4 µM (inactive)	26.5 µM (inactive)	30.1 µM (inactive)	17.2 µM (inactive)	> 89.3 µM (inactive)	17.1 µM	32.7 µM (inactive)	8.04 µM (inactive)	28.6 µM (inactive)	61 µM (inactive)	35 µM (inactive)	28.4 µM (inactive)	24.5 µM (inactive)	23.7 µM (inactive)	24.5 µM (inactive)	23.2 µM (inactive)	52 µM (inactive)
CCCCCCCCCCCC[S+](C)C	3.15 µM (inactive)	9.4 µM (inactive)	1.23 µM (inactive)	6.22 µM (inactive)	4.94 µM (inactive)	2.19 µM (inactive)	11.5 µM (inactive)	8.49 µM (inactive)	18.5 µM	4.83 µM (inactive)	3.48 µM (inactive)	4.56 µM (inactive)	5.68 µM (inactive)	1.69 µM (inactive)	3.36 µM (inactive)	2.86 µM (inactive)	4.21 µM (inactive)	1.58 µM (inactive)	0.665 µM (active)	10.7 µM (inactive)
O=Cc1ccc(-c2ccc(-c3ccc(C=O)s3)o2)s1	1.46 µM (inactive)	1.91 µM (inactive)	60.3 µM (inactive)	8.53 µM (inactive)	> 75.7 µM (inactive)	77.3 µM (inactive)	> 81.7 µM (inactive)	> 97.3 µM (inactive)	61.5 µM	> 53.3 µM (inactive)	28.2 µM (inactive)	> 100 µM (inactive)	29.7 µM (inactive)	23.8 µM (inactive)	> 100 µM (inactive)	> 100 µM (inactive)	18 µM (inactive)	> 100 µM (inactive)	8.63 µM (inactive)	0.284 µM (active)
O=C1c2cccc([N+](=O)[O-])c2C(=O)N1Cc1ccccc1	> 100 µM (inactive)	> 100 µM (inactive)	> 100 µM (inactive)	> 100 µM (inactive)	> 100 µM (inactive)	> 100 µM (inactive)	> 100 µM (inactive)	> 100 µM (inactive)	> 100 µM	> 100 µM (inactive)	> 100 µM (inactive)	> 100 µM (inactive)	> 100 µM (inactive)	> 100 µM (inactive)	> 100 µM (inactive)	> 100 µM (inactive)	> 100 µM (inactive)	> 100 µM (inactive)	> 100 µM (inactive)	> 100 µM (inactive)
CC[C@@]1(O)C(=O)OCc2c1cc1n(c2=O)Cc2c-1nc1ccccc1c2/C=N\NC(=O)C(N)CC(C)C (stereo not given in full)	3.12 µM (inactive)	< 0.01 µM (active)	0.171 µM (active)	0.0161 µM (active)	< 0.01 µM (active)	0.0382 µM (active)	0.016 µM (active)	< 0.0212 µM (active)	0.24 µM	0.438 µM (active)	0.0267 µM (active)	< 0.01 µM (active)	< 0.01 µM (active)	< 0.01 µM (active)	0.152 µM (active)	< 0.01 µM (active)	0.118 µM (active)	< 0.0188 µM (active)	< 0.01 µM (active)	0.0314 µM (active)
CN1N=C(N)c2cn(C3OC(COP(=O)(O)O)C(O)C3O)c3ncnc1c23 (stereo not given)	2.88 µM (inactive)	52.8 µM (inactive)	38.4 µM (inactive)	41.8 µM (inactive)	0.622 µM (active)	7.48 µM (inactive)	39.7 µM (inactive)	0.822 µM (active)	19.7 µM	7.52 µM (inactive)	385 µM (inactive)	3.16 µM (inactive)	5.33 µM (inactive)	20.5 µM (inactive)	2980 µM (inactive)	1.03 µM (active)	129 µM (inactive)	0.836 µM (active)	23.5 µM (inactive)	33.7 µM (inactive)
CN(C)CCCNC(=O)c1c(O)c2ccccc2n(C)c1=O	67.3 µM (inactive)	42 µM (inactive)	64.1 µM (inactive)	44.1 µM (inactive)	44.5 µM (inactive)	70 µM (inactive)	82.2 µM (inactive)	> 100 µM (inactive)	51.1 µM	> 100 µM (inactive)	79.3 µM (inactive)	43.8 µM (inactive)	63.7 µM (inactive)	65.3 µM (inactive)	> 100 µM (inactive)	30.6 µM (inactive)	82.2 µM (inactive)	67.6 µM (inactive)	36.3 µM (inactive)	> 100 µM (inactive)
COc1ccc(N2CN3OC(=O)N(c4ccc(OC)cc4)[C@@]3(c3ccccc3)C2)cc1	30.8 µM (inactive)	16.6 µM (inactive)	3.29 µM (inactive)	18.7 µM (inactive)	7.23 µM (inactive)	21.5 µM (inactive)	29 µM (inactive)	20.8 µM (inactive)	5.18 µM	23.2 µM (inactive)	4.02 µM (inactive)	61.9 µM (inactive)	14.4 µM (inactive)	51.1 µM (inactive)	6.46 µM (inactive)	23 µM (inactive)	11.5 µM (inactive)	10.8 µM (inactive)	32.6 µM (inactive)	19.5 µM (inactive)
Cc1cc(C)c2c(=O)cc(-c3ccccc3)[nH]c2c1	7.05 µM (inactive)	1.92 µM (inactive)	0.284 µM (active)	0.889 µM (active)	2.96 µM (inactive)	7.45 µM (inactive)	1.84 µM (inactive)	2.52 µM (inactive)	0.828 µM	4.47 µM (inactive)	0.57 µM (active)	4.65 µM (inactive)	3.16 µM (inactive)	2.07 µM (inactive)	0.548 µM (active)	2.69 µM (inactive)	1.38 µM (inactive)	2.06 µM (inactive)	5.14 µM (inactive)	1.35 µM (inactive)
O=C(c1cscc1CCc1ccccc1)c1cscc1CCc1ccccc1	> 100 µM (inactive)	> 100 µM (inactive)	> 100 µM (inactive)	> 100 µM (inactive)	> 100 µM (inactive)	> 100 µM (inactive)	> 100 µM (inactive)	> 100 µM (inactive)	> 100 µM	> 100 µM (inactive)	> 100 µM (inactive)	> 100 µM (inactive)	> 100 µM (inactive)	> 100 µM (inactive)	> 100 µM (inactive)	> 100 µM (inactive)	> 100 µM (inactive)	> 100 µM (inactive)	> 100 µM (inactive)	> 100 µM (inactive)
CC1OC(=O)C2CC3CCCCC3C(/C=C/C3CCCC(C)N3C)C12 (stereo not given)	> 100 µM (inactive)	> 100 µM (inactive)	> 100 µM (inactive)	> 100 µM (inactive)	> 100 µM (inactive)	> 100 µM (inactive)	> 100 µM (inactive)	> 100 µM (inactive)	> 100 µM	> 100 µM (inactive)	> 100 µM (inactive)	> 100 µM (inactive)	> 95.5 µM (inactive)	> 100 µM (inactive)	> 100 µM (inactive)	> 100 µM (inactive)	> 100 µM (inactive)	> 100 µM (inactive)	> 100 µM (inactive)	> 100 µM (inactive)
